From patent US20230256099A1, “Safe Use of Bile Acids and Their Salts as Enhancers for Nasal Delivery of Pharmaceuticals” (priority 2020, published 2023)

Tests used:
[1] = aqueous; cited from earlier work
[2] = General toxicity study of bile salt (STC) by IN delivery: clinical pathology and organ histopathology (Example 2); details: rat, in vivo, NOAEL for bile salt (STC) at an IN delivery, relative dose, rats; 0.75 mg / 0.298 kg
Method: Each rat was treated with two (2) IN administrations of the respective formulations in Groups A1-A5.

[3] = aqueous epinephrine, same dose by IM route; cited from earlier work

Compound | CMC [1] [mM] | other results
C[C@H](CCC(=O)[O-])[C@H]1CC[C@H]2[C@@H]3[C@H](O)C[C@@H]4C[C@H](O)CC[C@]4(C)[C@H]3C[C@H](O)[C@]12C.[Na+] [SC, sodium cholate] | ~4 | –
C[C@H](CCC(=O)[O-])[C@H]1CC[C@H]2[C@@H]3CC[C@@H]4C[C@H](O)CC[C@]4(C)[C@H]3CC[C@]12C.[Na+] [SLC, sodium lithocholate] | ~1 | –
C[C@H](CCC(=O)NCCS(=O)(=O)[O-])[C@H]1CC[C@H]2[C@@H]3[C@H](O)C[C@@H]4C[C@H](O)CC[C@]4(C)[C@H]3C[C@H](O)[C@]12C.[Na+] [STC, sodium taurocholate] | – | NOAEL [2]: ≥ 2.5 mg/kg
CNC[C@H](O)c1ccc(O)c(O)c1 [epinephrine] | – | bioavailability (BA) based on AUC of plasma concentration, IN relative to IM [3]: approximately 5%
